The source of these data is US20170150719A1, “FUNGICIDAL PYRAZOLES AND THEIR MIXTURES” (E I DU PONT DE NEMOURS AND COMPANY, priority 2010, published 2017).

The structures appear in SMILES notation. Marks after values point to notes of the source that are not given here.

The subject of one assay is Botrytis cinerea. The experiment in a line: Test A: tomato Botrytis, preventive spray on tomato seedlings, visual disease rating. Conditions: for pest or weed control at 200 µg/mL: Botrytis cinerea, in Solanum lycopersicum, read-out: Test A rating (disease control), tomato Botrytis.
Assay [1] concerns Puccinia recondita f. sp. tritici. Description: Test H: wheat leaf rust, preventive spray on wheat seedlings, visual disease rating. Conditions: for pest or weed control at 200 µg/mL: read-out: Test H rating (disease control), wheat leaf rust, sprayed the day before inoculation.
For assay [2] the test system is unchanged. The experiment in a line: Test G: wheat leaf rust, spray after inoculation (curative) on wheat seedlings, visual disease rating. It is filed as in vivo. The following applies: sprayed after inoculation. From the text: (§1) A hyphen (-) indicates no test results.
Assay [3] concerns Blumeria graminis f. sp. tritici. Description: Test I: wheat powdery mildew, preventive spray on wheat seedlings, visual disease rating. The following applies: for pest or weed control at 200 µg/mL: Blumeria graminis, in Triticum aestivum, read-out: Test I rating (disease control), wheat powdery mildew.
The next assay deals with Septoria nodorum. The experiment in a line: Test E: Septoria glume blotch, preventive spray on wheat seedlings, visual disease rating. Conditions: for pest or weed control at 200 µg/mL: Parastagonospora nodorum, in Triticum aestivum, read-out: Test E rating (disease control), Septoria glume blotch.
Another assay deals with Alternaria solani. Description: Test B: tomato early blight, preventive spray on tomato seedlings, visual disease rating. Conditions: for pest or weed control at 200 µg/mL: Alternaria solani, in Solanum lycopersicum, read-out: Test B rating (disease control).
The test system of another assay is Septoria tritici. Description: Test F: wheat leaf blotch, preventive spray on wheat seedlings, visual disease rating. The following applies: for pest or weed control at 200 µg/mL: Zymoseptoria tritici. The arrangement: Test F rating (disease control), value marked *: concentration or dose not given beside the values. It is filed as in vivo.
From the text: as §1

[4] abbreviates: 100 = 100% disease control, 0 = no disease control relative to the controls.
The mark [5] stands for this setting: 100 = 100% disease control, 0 = no disease control.

Description for Botrytis cinerea: General protocol for preparing test suspensions for Tests A-I: the test compounds were first dissolved in acetone in an amount equal to 3% of the final volume and then suspended at the desired concentration (in ppm) in acetone and purified water (50/50 mix by volume) containing 250 ppm of the surfactant Trem® 014 (polyhydric alcohol esters). The resulting test suspensions were then used in Tests A-I. Each test was conducted in triplicate, and the results were averaged. Spraying a 200 ppm test suspension to the point of run-off on the test plants was the equivalent of a rate of about 800 g/ha. Unless otherwise indicated, the rating values indicate a 200 ppm test suspension was used. (An asterisk “*” next to the rating value indicates a 40 ppm test suspension was used.)
The test suspension was sprayed to the point of run-off on tomato seedlings. The following day the seedlings were inoculated with a spore suspension of Botrytis cinerea (the causal agent of tomato Botrytis) and incubated in saturated atmosphere at 20° C. for 48 h, and then moved to a growth chamber at 24° C. for 3 additional days, after which time visual disease ratings were made.

`Cc1nn(C)c(Oc2c(F)cc(C#N)cc2F)c1-c1c(F)cc(F)cc1F` [Compound 8, 4-[[1,3-dimethyl-4-(2,4,6-trifluorophenyl)-1H-pyrazol-5-yl]oxy]-3,5-difluorobenzonitrile]: the “Test A rating (disease control), value marked *” value with Botrytis cinerea (tomato Botrytis, rating marked with asterisk (*), other test condition, not explained in the text shown) is 99* %. Further, in assay [1] (wheat leaf rust, preventive, rating marked with asterisk (*), not explained in the text shown), the “Test H rating (disease control), value marked *” value is 79* %. Besides, the “Test G rating (disease control), value marked *” value in assay [2] (rating marked with asterisk (*), not explained in the text shown) is 15* %. Further, the “Test I rating (disease control), value marked *” value in assay [3] (wheat powdery mildew, rating marked with asterisk (*), not explained in the text shown) is 60* %. Moreover, the “Test E rating (disease control), value marked *” value in the assay on Septoria nodorum (Septoria glume blotch, rating marked with asterisk (*), other test condition, not explained in the text shown) is reported as 0* %. For the same molecule, the “Test B rating (disease control), value marked *” value in the assay with Alternaria solani (tomato early blight, rating marked with asterisk (*), other test condition, not explained in the text shown) is listed as 98* %. For the same molecule, the “Test F rating (disease control), value marked *” value in the assay with Septoria tritici (rating marked with asterisk (*), other test condition, not explained in the text shown) was 47* %.

For the molecule `Cc1nn(C)c(Nc2c(F)cc(F)cc2F)c1-c1ccc(F)cc1F` [Compound 11, 4-(2,4-difluorophenyl)-1,3-dimethyl-N-(2,4,6-trifluorophenyl)-1H-pyrazol-5-amine], the pest or weed control at 200 µg/mL is 100% with Botrytis cinerea (setting [4]); 100% in assay [1] (setting [5]); 0% in assay [2] (setting [5]); 99% in assay [3] (setting [4]); 90% in the assay with Septoria nodorum (setting [4]); 99% in the assay with Alternaria solani. The same molecule came in with a pest or weed control at 200 µg/mL with Septoria tritici (setting [4]) of 94%.

Regarding `Cc1nn(C)c(Oc2c(F)cc(C#N)cc2F)c1-c1ccc(F)cc1Cl` [Compound 13, 4-[[4-(2-chloro-4-fluorophenyl)-1,3-dimethyl-1H-pyrazol-5-yl]oxy]-3,5-difluorobenzonitrile], the pest or weed control at 200 µg/mL with Botrytis cinerea (setting [4]) was 100%; in assay [1] (setting [5]), 100%; in assay [2] (setting [5]), 7%; in assay [3] (setting [4]), 100%; with Septoria nodorum (setting [4]) it was 100%; in the assay with Alternaria solani, 100%. This molecule came in with a pest or weed control at 200 µg/mL in the assay on Septoria tritici (setting [4]) of 100%.

On to `COc1cc(F)c(-c2c(C)nn(C)c2Oc2c(F)cc(Cl)cc2F)c(F)c1` [Compound 15], for which the “Test A rating (disease control)” value in the assay with Botrytis cinerea (tomato Botrytis, 100 = 100% disease control, 0 = no disease control relative to the controls) was 98%. In addition, in assay [1] (wheat leaf rust, sprayed the day before inoculation, 100 = 100% disease control, 0 = no disease control), the “Test H rating (disease control)” value turned out to be 100%. The “Test G rating (disease control)” value in assay [2] (setting [5]) was determined as 82%. For the same molecule, in assay [3] (wheat powdery mildew, 100 = 100% disease control, 0 = no disease control relative to the controls), the “Test I rating (disease control)” value turned out to be 100%. For the same molecule, the “Test E rating (disease control)” value with Septoria nodorum (Septoria glume blotch, 100 = 100% disease control, 0 = no disease control relative to the controls) was 89%. The “Test B rating (disease control)” value with Alternaria solani (tomato early blight, 100 = 100% disease control, 0 = no disease control relative to the controls) is 100%. In addition, in the assay on Septoria tritici (setting [4]), the “Test F rating (disease control)” value is recorded as 98%.

Turning to `Cc1nn(C)c(Nc2ccc(F)cc2F)c1-c1ccc(Cl)cc1Cl` [Compound 17, 4-(2,4-dichlorophenyl)-N-(2,4-difluorophenyl)-1,3-dimethyl-1H-pyrazol-5-amine], the pest or weed control at 200 µg/mL in the assay on Botrytis cinerea (setting [4]) stood at 100%; in assay [1] (setting [5]), 99%; in assay [2] (setting [5]) it was 91%; in assay [3] (setting [4]), 100%; in the assay on Septoria nodorum (setting [4]), 60%; with Alternaria solani, 73%. For the same molecule, the pest or weed control at 200 µg/mL with Septoria tritici (setting [4]) was determined as 99%.

As for `COc1cc(F)c(-c2c(C)nn(C)c2Nc2ccc(F)cc2Cl)c(F)c1` [Compound 23, N-(2-chloro-4-fluorophenyl)-4-(2,6-difluoro-4-methoxyphenyl)-1,3-dimethyl-1H-pyrazol-5-amine], the pest or weed control at 200 µg/mL worked out at 100% with Botrytis cinerea (setting [4]); 99% in assay [1] (setting [5]); 85% in assay [2] (setting [5]); 100% in assay [3] (setting [4]); 95% in the assay on Septoria nodorum (setting [4]); 100% in the assay with Alternaria solani. This molecule also gave a pest or weed control at 200 µg/mL in the assay on Septoria tritici (setting [4]) of 98%.

For `Cc1nn(C)c(Nc2c(F)cc(C#N)cc2F)c1-c1ccc(F)cc1Cl` [Compound 25, 4-[[4-(2-chloro-4-fluorophenyl)-1,3-dimethyl-1H-pyrazol-5-yl]amino]-3,5-difluorobenzonitrile], the pest or weed control at 200 µg/mL came out at 100% with Botrytis cinerea (setting [4]); 100% in assay [1] (setting [5]); 0% in assay [2] (setting [5]); 100% in assay [3] (setting [4]); 95% in the assay on Septoria nodorum (setting [4]); 99% in the assay on Alternaria solani. Further, the pest or weed control at 200 µg/mL in the assay with Septoria tritici (setting [4]) was 99%.

As to `Cc1nn(C)c(Oc2ccc(C#N)cc2F)c1-c1ccc(F)cc1Cl` [Compound 33, 4-[[4-(2-chloro-4-fluorophenyl)-1,3-dimethyl-1H-pyrazol-5-yl]oxy]-3-fluorobenzonitrile], the pest or weed control at 200 µg/mL in the assay on Botrytis cinerea (setting [4]) came out at 100%; in assay [1] (setting [5]), 100%; in assay [2] (setting [5]) it was 99%; in assay [3] (setting [4]) it was 99%; in the assay with Septoria nodorum (setting [4]), 98%; in the assay on Alternaria solani it was 100%. Also, the pest or weed control at 200 µg/mL in the assay on Septoria tritici (setting [4]) is 100%.

Turning to `Cc1nn(C)c(Oc2ccc(C#N)cc2Cl)c1-c1ccc(F)cc1Cl` [Compound 37, 3-chloro-4-[[4-(2-chloro-4-fluorophenyl)-1,3-dimethyl-1H-pyrazol-5-yl]oxy]benzonitrile], the pest or weed control at 200 µg/mL in the assay with Botrytis cinerea (setting [4]) amounted to 100%; in assay [1] (setting [5]) it was 99%; in assay [2] (setting [5]) it was 69%; in assay [3] (setting [4]), 100%; with Septoria nodorum (setting [4]), 100%; with Alternaria solani, 86%. In the assay on Septoria tritici (setting [4]), this molecule registered a pest or weed control at 200 µg/mL of 100%.

On to `Cc1nn(C)c(Nc2c(F)cccc2F)c1-c1ccc(F)cc1Cl` [Compound 46, 4-(2-chloro-4-fluorophenyl)-N-(2,6-difluorophenyl)-1,3-dimethyl-1H-pyrazol-5-amine], for which the pest or weed control at 200 µg/mL in the assay with Botrytis cinerea (setting [4]) was found to be 100%; in assay [1] (setting [5]) it was 99%; in assay [2] (setting [5]) it was 0%; in assay [3] (setting [4]), 100%; in the assay on Septoria nodorum (setting [4]), 87%; in the assay on Alternaria solani, 100%. In the assay on Septoria tritici (setting [4]), this molecule showed a pest or weed control at 200 µg/mL of 100%.

`Cc1nn(C)c(Nc2ccc(F)cc2Cl)c1-c1c(F)cccc1Cl` [Compound 58, N-(2-chloro-4-fluorophenyl)-4-(2-chloro-6-fluorophenyl)-1,3-dimethyl-1H-pyrazol-5-amine]: the pest or weed control at 200 µg/mL with Botrytis cinerea (setting [4]) amounted to 99%; in assay [1] (setting [5]), 99%; in assay [2] (setting [5]) it was 32%; in assay [3] (setting [4]), 100%; in the assay on Septoria nodorum (setting [4]), 0%; in the assay on Alternaria solani, 100%. In the assay with Septoria tritici (setting [4]), the pest or weed control at 200 µg/mL came to 100%.

`Cc1nn(C)c(Oc2c(F)cc(C#N)cc2F)c1-c1ccc(F)cc1Br` [Compound 65, 4-[[4-(2-bromo-4-fluorophenyl)-1,3-dimethyl-1H-pyrazol-5-yl]oxy]-3,5-difluorobenzonitrile]: the pest or weed control at 200 µg/mL worked out at 100% in the assay on Botrytis cinerea (setting [4]); 100% in assay [1] (setting [5]); 0% in assay [2] (setting [5]); 100% in assay [3] (setting [4]); 99% with Septoria nodorum (setting [4]); 99% in the assay on Alternaria solani. In the assay with Septoria tritici (setting [4]), the pest or weed control at 200 µg/mL amounted to 100%.

Turning to `Cc1nn(C)c(Nc2ccc(F)cc2Br)c1-c1ccc(F)cc1Cl` [Compound 73, N-(2-bromo-4-fluorophenyl)-4-(2-chloro-4-fluorophenyl)-1,3-dimethyl-1H-pyrazol-5-amine], the pest or weed control at 200 µg/mL in the assay with Botrytis cinerea (setting [4]) was found to be 100%; in assay [1] (setting [5]) it was 100%; in assay [2] (setting [5]), 90%; in assay [3] (setting [4]) it was 100%; with Septoria nodorum (setting [4]), 78%; in the assay on Alternaria solani, 99%. In addition, the pest or weed control at 200 µg/mL with Septoria tritici (setting [4]) came out at 100%.

Take `Cc1nn(C)c(Nc2c(F)cc(F)cc2F)c1-c1ccc(F)cc1Br` [Compound 74, 4-(2-bromo-4-fluorophenyl)-1,3-dimethyl-N-(2,4,6-trifluorophenyl)-1H-pyrazol-5-amine]: the pest or weed control at 200 µg/mL with Botrytis cinerea (setting [4]) was determined as 100%; in assay [1] (setting [5]), 100%; in assay [2] (setting [5]), 0%; in assay [3] (setting [4]), 100%; in the assay with Septoria nodorum (setting [4]), 98%; in the assay on Alternaria solani, 100%. This molecule also yielded a pest or weed control at 200 µg/mL with Septoria tritici (setting [4]) of 100%.
